Measurements reported in the supplement of paper PMC13380429.

What was measured:
[1] = system: A549-ACE2 infected with SARS-CoV-2; assay: cell count relative to DMSO; higher = less toxic; conditions: 24 h
[2] = system: Caco-2; assay: cell viability relative to DMSO; higher = less toxic; conditions: 72 h
[3] = system: HepG2; assay: as above; conditions: 72 h
[4] = system: U2OS; assay: as above; conditions: 72 h
[5] = system: Vero E6; assay: as above; conditions: 72 h
[6] = system: A549-ACE2 infected with SARS-CoV-2; assay: SARS-CoV-2 infection rate relative to DMSO; higher = more infection; conditions: 24 h
[7] = system: A549-ACE2; assay: phospholipidosis EC50; higher = less potent phospholipidosis inducer
[8] = system: A549-ACE2; assay: drug-induced phospholipidosis relative to tamoxifen; higher = more phospholipidosis
[9] = system: A549-ACE2 infected with SARS-CoV-2; assay: morphology score (similarity to uninfected cells); higher = more like uninfected cells; conditions: 24 h
[10] = system: Caco-2; assay: relative viability EC50 (midpoint between 100% and the lowest measured viability); higher = less toxic; conditions: 72 h
[11] = system: HepG2; assay: as above; conditions: 72 h
[12] = system: U2OS; assay: as above; conditions: 72 h
[13] = system: Caco-2; assay: drug sensitivity score (DSS) for viability; higher = more toxic; extreme values may be limits of the assay; conditions: 72 h
[14] = system: HepG2; assay: as above; conditions: 72 h
[15] = system: U2OS; assay: as above; conditions: 72 h
[16] = system: Vero E6; assay: as above; conditions: 72 h

N=C(NCCCCCCNC(=N)NC(=N)Nc1ccc(Cl)cc1)NC(=N)Nc1ccc(Cl)cc1 [chlorhexidine]
Conditions | SARS-CoV-2 infection rate [%] | cell count [%] | cell viability [%] | morphology score | phospholipidosis EC50 [µM]
[1], 0.1 µM | – | 103 | – | – | –
[1], 0.3 µM | – | 99 | – | – | –
[1], 1 µM | – | 107 | – | – | –
[1], 3 µM | – | 106 | – | – | –
[2], 1 nM | – | – | 99.3 | – | –
[2], 10 nM | – | – | 90 | – | –
[2], 100 nM | – | – | 98.1 | – | –
[2], 1000 nM | – | – | 100 | – | –
[2], 10000 nM | – | – | 16.4 | – | –
[3], 1 nM | – | – | 101 | – | –
[3], 10 nM | – | – | 103 | – | –
[3], 100 nM | – | – | 87 | – | –
[3], 1000 nM | – | – | 90.9 | – | –
[3], 10000 nM | – | – | 10.1 | – | –
[4], 1 nM | – | – | 99.9 | – | –
[4], 10 nM | – | – | 101 | – | –
[4], 100 nM | – | – | 95.9 | – | –
[4], 1000 nM | – | – | 100 | – | –
[4], 10000 nM | – | – | 32.2 | – | –
[5], 1 nM | – | – | 96.5 | – | –
[5], 10 nM | – | – | 99 | – | –
[5], 100 nM | – | – | 97.9 | – | –
[5], 1000 nM | – | – | 95.2 | – | –
[5], 10000 nM | – | – | 56.1 | – | –
[6], 0.1 µM | 95 | – | – | – | –
[6], 0.3 µM | 90 | – | – | – | –
[6], 1 µM | 91 | – | – | – | –
[6], 3 µM | 93 | – | – | – | –
[7], 24 h | – | – | – | – | 9.72
[7], 48 h | – | – | – | – | 7.36
[9], 0.1 µM | – | – | – | -0.01 | –
[9], 0.3 µM | – | – | – | 0.17 | –
[9], 1 µM | – | – | – | 0.17 | –
[9], 3 µM | – | – | – | -0.05 | –

drug-induced phospholipidosis [%], [8]
Conditions | 0.3 µM | 0.833333 µM | 3.33333 µM | 6.66667 µM | 10 µM | 30 µM
24 h | -0.01 | -1.75 | 7.04 | 31.6 | 58.6 | 105
48 h | 3.12 | 2.84 | 15.7 | 40.3 | 57.2 | –
72 h | 3.95 | 2.67 | 18.9 | 39.3 | 61.2 | –

Conditions | drug sensitivity score | relative viability EC50 [µM]
[10] | – | 3.19
[11] | – | 2.32
[12] | – | 3.19
[13] | 4.6 | –
[14] | 6.5 | –
[15] | 3.7 | –
[16] | 3 | –
